A short description of data set [1]: Pharmacokinetics of carfilzomib in plasma. Type of data set: in vivo, human. Conditions: compared with carfilzomib monotherapy study.
The next data set relates to Japanese RRMM patients. Conditions: carfilzomib monotherapy; cited from earlier work.

Here are results for one compound from PMC5378280 (Cancer Science, 2017).

The structures appear in SMILES notation.

For the compound `CC(C)C[C@H](NC(=O)[C@H](CCc1ccccc1)NC(=O)CN1CCOCC1)C(=O)N[C@@H](Cc1ccccc1)C(=O)N[C@@H](CC(C)C)C(=O)[C@@]1(C)CO1` [carfilzomib], the “Effect of lenalidomide and dexamethasone on carfilzomib pharmacokinetics” value in data set [1] is “did not appear to be affected”. Besides, in the data set with Japanese RRMM patients, the ORR is on record as 22.5%.
